The text below walks through data of publication PMC2763345 (PLoS Pathogens, 2009).

In brackets after ≈: the same amount, converted by molar mass. Like-named read-outs stand apart in the source and are kept apart here. Some results are limits rather than exact numbers.

One may read the IC50 as the point on the concentration scale where inhibition reaches its midpoint. A higher IC50 goes with lower potency.

In data set [1] the test system is M. tuberculosis H37Rv-GFP in Raw264.7 macrophages. Description: microbe, parasite or virus in culture. Type of data set: cell-based, Mycobacterium tuberculosis. The settings on record: for MIC: Mycobacterium tuberculosis, H37RV.
The test system of data set [2] is M. tuberculosis H37Rv-GFP. The data set is described as follows: microbe, parasite or virus in culture. It is filed as cell-based, Mycobacterium tuberculosis. The following applies: for MIC: Mycobacterium tuberculosis, H37RV.
Data set [3] relates to M. smegmatis mc2 155 Wild Type. Description: microbe, parasite or virus in culture. Type of data set: cell-based.
A further data set concerns BCG Wild Type. The data set is described as follows: microbe, parasite or virus in culture. Type of data set: cell-based, M. bovis BCG.
Data set [4] relates to M. tuberculosis H37Rv. It is filed as cell-based.
A further data set relates to C. jeikeium. It is filed as cell-based, Corynebacterium jeikeium.
The subject of data set [5] is M. tuberculosis H37Rv. It is filed as cell-based. This is another data set of the same source.
Data set [6] concerns Candida albicans, C. glabrata, C. parapsilosis. It is filed as cell-based, Fungi.
The test system of data set [7] is M. tuberculosis H37Ra. Type of data set: cell-based.
The subject of data set [8] is Staphylococcus aureus, S. epidermis, S. capitis, S. xylosus, Micrococcus luteus, Listeria innocua, Lactobacillus gallinarum, group G Streptococcus …. Type of data set: cell-based, Gram-positive bacteria.
Another data set concerns M. smegmatis mc2 155. Type of data set: cell-based.
Data set [9] has as its system M. tuberculosis H37Ra. Type of data set: cell-based. The source holds these as a separate data set.
The nature of the next data set: in vitro. The settings on record: C57BL/6, mouse.
The test system of a further data set is BCG Pasteur-Tokyo. Type of data set: cell-based, M. bovis BCG.
The test system of another data set is C. striatum. It is filed as cell-based, Corynebacterium striatum.
In data set [10] the test system is Acinetobacter baumannii, Escherichia coli, Enterobacter cloacae, E. aerogenes, Klebsiella oxytoca, Pseudomonas aeruginosa, Salmonella enteridis, Vibrio mimicus. Type of data set: cell-based, Gram-negative bacteria.
Where [11] appears, read: 120 h, read-out: Intracellular macrophage growth MIC (µM).
Where [12] appears, read: 120 h, read-out: Intracellular macrophage growth MIC (µg/mL).
[13] abbreviates: read-out: In vitro broth growth MIC (µM).
Setting [14] is: read-out: In vitro broth growth MIC (µg/mL).

Consider `O=C(NCCOCc1cccc(Cl)c1)c1cc(NO)cc([N+](=O)[O-])c1` [Compound 3], for which the MIC in data set [1] (read-out: MIC Intracellular) and in data set [2] (read-out: MIC Extracellular) was above 20 µM throughout.

As for `O=C(NCCOCc1cccc(Cl)c1)c1cc([N+](=O)[O-])cc([N+](=O)[O-])c1` [Compound 1], the MIC in [1] (read-out: MIC Intracellular) stood at 1 µM; in [2] (read-out: MIC Extracellular) it was 0.2 µM.

On to `O=C(NCCOc1ccccc1F)c1cc([N+](=O)[O-])cc([N+](=O)[O-])c1` [Compound 9], for which the MIC came out at 0.7 µM in data set [1] (read-out: MIC Intracellular) and 0.2 µM in data set [2] (read-out: MIC Extracellular).

In the case of `O=[N+]([O-])c1cn2c(n1)OC[C@@H](OCc1ccc(OC(F)(F)F)cc1)C2` [PA-824], in data set [1], the “differences in MIC between the two assays (broth and intracellular)” value (from here on “differences”) is “No major differences”. Besides, the MIC in data set [1] (setting [11]) came out at 0.22 µM; in [1] (setting [12]), 0.08 µg/mL; in data set [2] (setting [13]), 0.22 µM; in data set [2] (setting [14]), 0.08 µg/mL. Also, the “Intracellular macrophage growth Cell toxicity” value in the data set with Raw264.7 macrophages (mouse) is given as above 20 µM.

As for `O=C(NCCOCc1ccccc1F)c1cc([N+](=O)[O-])cc([N+](=O)[O-])c1` [Compound 5], the MIC turned out to be 0.2 µM in [1] (read-out: MIC Intracellular) and 0.08 µM in data set [2] (read-out: MIC Extracellular).

As to `CO[C@H]1/C=C/O[C@@]2(C)Oc3c(C)c(O)c4c(c3C2=O)C2=NC3(CCN(CC(C)C)CC3)NC2=C(NC(=O)/C(C)=C\C=C\[C@H](C)[C@H](O)[C@@H](C)[C@@H](O)[C@@H](C)[C@H](OC(C)=O)[C@@H]1C)C4=O` [Rifabutin], the MIC in data set [1] (setting [11]) is 0.11 µM; in data set [1] (setting [12]), 0.1 µg/mL; in [2] (setting [13]) it was 0.01 µM; in data set [2] (setting [14]), 0.01 µg/mL. Further, the “Intracellular macrophage growth Cell toxicity” value in the data set on Raw264.7 macrophages (mouse) is above 20 µM.

As for `NC(=O)c1cnccn1` [Pyrazinamide], the MIC is above 150 µM in data set [1] (setting [11]), above 20 µg/mL in data set [1] (setting [12]), above 150 µM in data set [2] (setting [13]) and above 20 µg/mL in data set [2] (setting [14]). Moreover, the “Intracellular macrophage growth Cell toxicity” value with Raw264.7 macrophages (mouse) is given as above 150 µM.

As for `CC[C@@H](CO)NCCN[C@@H](CC)CO` [Ethambutol], in data set [1], the “differences” value is “No major differences”. Besides, the MIC amounted to 4.9 µM in data set [1] (setting [11]), 1 µg/mL in data set [1] (setting [12]), 4.9 µM in [2] (setting [13]) and 1 µg/mL in [2] (setting [14]). In the data set on Raw264.7 macrophages (mouse), the “Intracellular macrophage growth Cell toxicity” value is above 20 µM.

Turning to `CCc1cc(C(N)=S)ccn1` [Ethionamide], in data set [1], the “differences” value is “No major differences”. For the same compound, the MIC in data set [1] (setting [11]) came out at 6 µM; in [1] (setting [12]) it was 1 µg/mL; in data set [2] (setting [13]) it was 6 µM; in data set [2] (setting [14]) it was 1 µg/mL. The “Intracellular macrophage growth Cell toxicity” value in the data set with Raw264.7 macrophages (mouse) is 120 µM.

Regarding `O=C(NCCOCc1cccc(C(F)(F)F)c1)c1cc([N+](=O)[O-])cc([N+](=O)[O-])c1` [Compound 6], the MIC in data set [1] (read-out: MIC Intracellular) and in data set [2] (read-out: MIC Extracellular) was 0.2 µM throughout.

For `Nc1cc(C(=O)NCCOCc2cccc(Cl)c2)cc([N+](=O)[O-])c1` [Compound 2], the MIC in data set [1] (read-out: MIC Intracellular) and in data set [2] (read-out: MIC Extracellular) was above 20 µM throughout.

Consider `O=C(NCCOCc1cccc(Cl)c1)c1cccc([N+](=O)[O-])c1` [Compound 4], for which the MIC in data set [1] (read-out: MIC Intracellular) and in data set [2] (read-out: MIC Extracellular) was above 20 µM in each case.

As to `CO[C@H]1/C=C/O[C@@]2(C)Oc3c(C)c(O)c4c(O)c(c(/C=N/N5CCN(C)CC5)c(O)c4c3C2=O)NC(=O)/C(C)=C\C=C\[C@H](C)[C@H](O)[C@@H](C)[C@@H](O)[C@@H](C)[C@H](OC(C)=O)[C@@H]1C` [Rifampin], the “MIC” value in data set [3] amounted to 0.31 µg/mL (≈ 0.377 µM); in data set [1] (setting [11]), 2.9 µM; in data set [1] (setting [12]), 2.4 µg/mL; against BCG Wild Type, 0.31 µg/mL (≈ 0.377 µM); in data set [2] (setting [13]) it was 0.01 µM; in data set [2] (setting [14]), 0.01 µg/mL. Moreover, in the data set on Raw264.7 macrophages (mouse), the “Intracellular macrophage growth Cell toxicity” value worked out at 24 µM.

Consider `[H]/N=C(/N)N[C@H]1[C@H](O)[C@@H](O)[C@H](O[C@@H]2O[C@@H](C)[C@](O)(C=O)[C@H]2O[C@@H]2O[C@@H](CO)[C@H](O)[C@@H](O)[C@@H]2NC)[C@@H](N/C(N)=N\[H])[C@@H]1O` [Streptomycin], for which the MIC in [1] (setting [11]) was above 35 µM; in [1] (setting [12]), above 20 µg/mL; in [2] (setting [13]) it was 1.5 µM; in data set [2] (setting [14]), 0.9 µg/mL. Besides, the “Intracellular macrophage growth Cell toxicity” value in the data set on Raw264.7 macrophages (mouse) is above 35 µM.

As to `NNC(=O)c1ccncc1` [Isoniazid], the “differences” value in data set [1] was “No major differences”. In addition, the MIC is 1.2 µM in [1] (setting [11]), 0.16 µg/mL in data set [1] (setting [12]), 1.2 µM in data set [2] (setting [13]) and 0.16 µg/mL in data set [2] (setting [14]). Besides, the “Intracellular macrophage growth Cell toxicity” value in the data set with Raw264.7 macrophages (mouse) is listed as above 150 µM.

As to `COc1ccc(O[C@H]2CCN(C(=O)c3cc([N+](=O)[O-])cc([N+](=O)[O-])c3)C2)cc1` [Compound 10-(S)], the MIC in data set [1] (read-out: MIC Intracellular) was found to be 20 µM; in data set [2] (read-out: MIC Extracellular), 0.08 µM.

`O=C(NCCOCc1ccccc1)c1cc([N+](=O)[O-])cc([N+](=O)[O-])c1` [Compound 7, N-(2-(benzyloxy)ethyl)-3,5-dinitrobenzamide]: the “bactericidal effect on M. tuberculosis” value with M. tuberculosis H37Rv [4] was “time-dependent”. The MIC turned out to be 0.25 µg/mL (≈ 0.724 µM) in data set [3] (Mycolicibacterium smegmatis, MC2155); 0.2 µM in data set [1] (read-out: MIC Intracellular); 0.25 µg/mL (≈ 0.724 µM) against BCG Wild Type (Mycobacterium tuberculosis variant bovis BCG, BCG); 0.2 µM in data set [2] (read-out: MIC Extracellular). Further, the “Range of MICs for multiple strains” value in the data set with C. jeikeium is reported as 2.7 µM; in the data set on M. tuberculosis H37Rv [5], 0.2 µM; in [6], above 250 µM; in the data set on M. tuberculosis H37Ra [7] it was 0.2 µM; in data set [8], above 250 µM; in the data set on M. smegmatis mc2 155 it was 0.4 µM. The results for the “Range of MICs for multiple strains” value (in the data set on BCG Pasteur-Tokyo; with C. striatum; in data set [10]) were 0.2 to 0.7 µM, 27 µM and above 250 µM, respectively. Also, in the data set on M. tuberculosis H37Ra [9], the “effect on the synthesis of the arabinan domains of arabinogalactan (AG) and lipoarabinomannan (LAM)” value is recorded as “clear-cut effect”. Moreover, in the data set with M. tuberculosis H37Ra [9], the “effects on the biosynthesis of fatty acids, mycolic acids and/or other lipids” value was “no effects”. In “in vitro”, this compound yielded an IC50 of 50 µM.

For the compound `CC(=O)O[C@H]1C[C@@]2(C)[C@@H](C[C@@H](O)[C@H]3[C@@]4(C)CC[C@@H](O)[C@@H](C)[C@@H]4CC[C@@]32C)/C1=C(\CCC=C(C)C)C(=O)O` [Fusidic Acid], the MIC in [1] (setting [11]) is 20 µM; in [1] (setting [12]), 10 µg/mL; in data set [2] (setting [13]) it was 1 µM; in data set [2] (setting [14]), 0.5 µg/mL. In addition, the “Intracellular macrophage growth Cell toxicity” value with Raw264.7 macrophages (mouse) is given as above 20 µM.

With `NCC[C@H](O)C(=O)N[C@@H]1C[C@H](N)[C@@H](O[C@H]2O[C@H](CN)[C@@H](O)[C@H](O)[C@H]2O)[C@H](O)[C@H]1O[C@H]1O[C@H](CO)[C@@H](O)[C@H](N)[C@H]1O` [Amikacin], the MIC in data set [1] (setting [11]) is above 150 µM; in data set [1] (setting [12]) it was above 20 µg/mL; in data set [2] (setting [13]) it was 0.07 µM; in data set [2] (setting [14]), 0.04 µg/mL. The “Intracellular macrophage growth Cell toxicity” value in the data set on Raw264.7 macrophages (mouse) was above 150 µM.

`COc1ccc(O[C@H]2CCCN(C(=O)c3cc([N+](=O)[O-])cc([N+](=O)[O-])c3)C2)cc1` [Compound 12-(S)]: the results for the MIC in data set [1] (read-out: MIC Intracellular) and in data set [2] (read-out: MIC Extracellular) were 20 µM and 6 µM, respectively.

Turning to `COC(=O)c1ccc(O[C@H]2CCN(C(=O)c3cc([N+](=O)[O-])cc([N+](=O)[O-])c3)C2)cc1` [Compound 11-(S)], the MIC in data set [1] (read-out: MIC Intracellular) was above 20 µM; in data set [2] (read-out: MIC Extracellular), 0.08 µM.

On to `C[C@H]1COc2c(N3CCN(C)CC3)c(F)cc3c(=O)c(C(=O)O)cn1c23` [Levofloxacin], for which the MIC was above 20 µM in data set [1] (setting [11]), above 10 µg/mL in data set [1] (setting [12]), 2.5 µM in data set [2] (setting [13]) and 0.9 µg/mL in [2] (setting [14]). Moreover, the “Intracellular macrophage growth Cell toxicity” value in the data set on Raw264.7 macrophages (mouse) is reported as above 20 µM.

For `NC(=O)c1c(NC(=O)C2CC2)sc2c1CCCC2` [AX20017], in data set [1], the “Intracellular macrophage growth MIC (µM)” value is listed as above 20 µM and the “Intracellular macrophage growth MIC (µg/mL)” value is reported as above 5 µg/mL. Also, the “Intracellular macrophage growth Cell toxicity” value in the data set on Raw264.7 macrophages is given as above 20 µM. In data set [2], the “In vitro broth growth MIC (µM)” value is given as above 20 µM and the “In vitro broth growth MIC (µg/mL)” value was above 5 µg/mL.
